{
  "source": "patent US20090169573A1",
  "about": "“T-Cell Stimulatory Peptides From The Melanoma-Associated Chondroitin Sulfate Proteoglycan And Their Use” (priority 2004, published 2009)",
  "key": {"CD4+ T-cell clone 25": {"tested_on": "CD4+ T-cell clone 25", "type": "cell-based, human", "conditions": "for recognition by clone 25 of overlapping 16-mer peptides: IFN-γ ELISA"}, "CD4+ T-cell clone 3": {"tested_on": "CD4+ T-cell clone 3", "assay": "IFN-γ production of CD4+ T-cell clone 3 on peptide-pulsed autologous EBV-B cells (ELISA)", "type": "cell-based, human"}, "CD4+ T-cells": {"tested_on": "CD4+ T-cells", "assay": "CD4+ T-cell induction with peptide-loaded dendritic cells, IFN-γ ELISA of microcultures", "type": "cell-based, human"}, "HLA-DR 11": {"tested_on": "HLA-DR 11", "assay": "HLA restriction of clone 3: blocking antibodies and EBV-B cell lines with different HLA class II molecules", "type": "cell-based, human", "conditions": "peptide 5 μg/ml, IFN-γ production", "procedure": "FIG. 14: Autologous EBV-B cells (15,000) pulsed with 16-mer MCSP peptide (aa 1281-1296 (SEQ ID NO:48), 5 μg/ml) were used as stimulator cells in the presence of different blocking antibodies. All antibodies were used at a final concentration of 5 μg/ml each.\nFIG. 15: Several EBV-B cell lines with different HLA class II molecules were pulsed with peptide MCSP1281-1296 (SEQ ID NO:48; 5 μg/ml) and tested for recognition (at 15,000 cells per well) by the CD4^+ T cell clone (4,000 cells per well).\n(§1) 8. Determination of HLA restriction element utilized by MCSP-specific CD4^+ T-cell clone 25 and 3: To analyze the HLA restriction of CD4^+ T-cell clone 25 and 3, three monoclonal antibodies directed against anti-DR (L243; BD Biosciences, San Jose, USA), anti-DQ (CSPVL3; Immunotech) or anti-DP (B7/21; BD Biosciences, San Jose, USA) were used to test which one inhibited the recognition of antigen-presenting cells by the clone. First EBV-B cells (1.5×10^4 per round-bottomed microtiter plate well) were incubated for 1 h at 37° C., 8% CO2 in the presence of the peptide (SEQ ID NO:9 for clone 25, SEQ ID NO:48 for clone 3). The antibodies were added at a concentration of 5 ng/ml. The CD4^+ T-cell clone 25 or 3 was then added at 4×10^3 per well."}, "HLA-DR11": {"tested_on": "HLA-DR11", "assay": "HLA restriction of clone 25: blocking antibodies and EBV-B cell lines with different HLA class II molecules", "type": "cell-based, human", "conditions": "IFN-γ production", "procedure": "FIG. 6: Autologous EBV-B cells (1.5×10^4) pulsed with 1 μM of the 16-mer MCSP peptide […] (SEQ ID NO:9) were used as stimulator cells in the presence of different blocking antibodies (anti-DR, anti-DQ or anti-DP). Also a control with no antibody (no Ab) was set up. All antibodies were used at a final concentration of 5 μg/ml each.\nFIG. 7: 1.5×10^4 cells of several EBV-B cell lines (LP2-, LB1981-, R12-, PV6-, AC 42- and 4800-EBV) with different HLA class II molecules (HLA-DR11 positive or HLA-DR11 negative) were pulsed/loaded for 1 h with MCSP peptide […] (SEQ ID NO:9) (1 μM, white bar) and tested for recognition by the CD4^+ T cell clone. As control, the cells were pulsed in the absence of protein (black spotted bar).\nas §1\n9. Determination of HLA-DR restriction element utilized by MCSP-specific CD4^+ T-cell clone 25: It was determined that cytokine secretion by the CD4^+ T-cell clone 25 occurred in response to EBV-B cells pulsed/loaded with MCSP-derived peptides restricted to HLA-DR. To further define the HLA-restriction element utilized by clone 25, additional EBV-B cell lines were used for peptide presentation as described above. In particular LP2-, LB1981-, R12-, PV6-, AC 42- and 4800-EBV which have with different HLA class II molecules (HLA-DR11 positive or HLA-DR11 negative) were used. They were pulsed/loaded for 1 h with 1 μM MCSP peptide […] […]"}, "CD8+ T-cells": {"tested_on": "CD8+ T-cells", "assay": "CD8+ T-cell induction with TAT-MCSP-peptide-loaded dendritic cells, IFN-γ ELISA of microcultures", "conditions": "donor 11325; long TAT-MCSP-peptide 10 μM; not with control peptide; FIG. 18", "experimental": "After 3 weekly restimulations microcultures were tested for their IFN-γ production when stimulated with autologous EBV-B cells loaded with the TAT-MCSP peptide (SEQ ID NO:54) or a control peptide.\nAliquots of approximately 4,000 CD8^+ T-cells from each 96-well microculture were co-incubated with 15,000 stimulator cells and after 20 h the IFN-γ concentration in the supernatant was measured by ELISA. […] Bars represent standard deviations.\nIn order to isolate MCSP specific CD8^+ T cells, DCs were derived from monocytes of healthy donors using IL-4 and GM-CSF and loaded with the long TAT-MCSP-peptide of SEQ ID NO:54 at 20 μg/ml overnight so that potential T-cell epitopes within this peptide could be processed and presented by the cell. DCs were matured 6 h after peptide-loading by a cytokine cocktail (IL-1β, IL-6, TNF-α, PGE2) as described in Example 3 (b). Autologous CD8^+ T-cells were stimulated with protein-loaded mature DCs in 96-well-plates on the next day (FIG. 17). […]\nAutologous EBV-B cells (5×10^5) were incubated for 18-20 h at 37° C. in the presence of 10 μg/ml or 20 μg/ml (compare Figure legends) of the MCSP peptide or an irrelevant control peptide as a negative control. […] After 18-20 h, supernatants were harvested and assessed for IFN-γ content using an ELISA assay with reagents from Medgenix Diagnostics-Biosource (Fleurus, Belgium). […]"}, "[1]": {"conditions": "autologous EBV-B cells pulsed 1 μM, 1 h, FIG. 4"}},
  "data": [
    {"sequence": "ETNAVGQDVSVLFRVT [SEQ ID NO:8]", "values": [
      {"measurement": "recognition by clone 25 of overlapping 16-mer peptides", "setting": "CD4+ T-cell clone 25; [1]", "value": "recognized"}
    ]},
    {"sequence": "GYLVMVSRGALA [SEQ ID NO:46]", "values": [
      {"measurement": "recognition of truncated peptides by clone 3", "setting": "CD4+ T-cell clone 3; truncated peptides derived from SEQ ID NO:42, 5 μg/ml, IFN-γ ELISA, FIG. 13", "value": "shortest peptide efficiently recognized"}
    ]},
    {"sequence": "LAQGSAMPILPANLSVETNAVGQDVSVLFRVTGALQFGELQK [SEQ ID NO:3]", "values": [
      {"measurement": "number of microcultures with peptide-specific CD4+ T-cells generated", "setting": "CD4+ T-cells; DCs loaded with the 42 mer overnight (50 μg/ml), matured by cytokine cocktail", "value": 2},
      {"measurement": "number of peptide-specific T-cell clones obtained", "setting": "CD4+ T-cells; from microculture C2, limiting dilution", "value": 3},
      {"measurement": "IFN-γ production of clone C2/25 after stimulation with peptide-loaded autologous EBV-B-cells", "setting": "CD4+ T-cell clone 25; 42 mer 5 μM overnight, not with EBV-B-cells with or without control peptide, FIG. 3", "value": "specific IFN-γ production"}
    ]},
    {"sequence": "PPSAGYLVMVSRGALA [SEQ ID NO:42]", "values": [
      {"measurement": "efficiency of stimulation of clone 3 among overlapping peptides", "setting": "CD4+ T-cell clone 3; autologous EBV-B cells pulsed 5 μg/ml, 1 h, FIG. 12", "value": "most efficiently"},
      {"measurement": "recognition by clone 3 of peptide-loaded autologous EBV-B cells in presence of anti-HLA-DR antibody", "setting": "HLA-DR 11; FIG. 14", "value": "abolished"},
      {"measurement": "recognition by clone 3 of peptide-loaded autologous EBV-B cells in presence of antibodies against HLA-DP or HLA-DQ", "setting": "HLA-DR 11; FIG. 14", "value": "no influence"},
      {"measurement": "presentation of peptide to clone 3 by EBV-B cell lines with different HLA class II typings", "setting": "HLA-DR 11; FIG. 15", "value": "only those expressing HLA-DR 11 were able to present the peptide to clone 3"}
    ]},
    {"sequence": "VGQDVSVLFRVTGALQ [SEQ ID NO:9]", "values": [
      {"measurement": "efficiency of stimulation of clone 25 among overlapping 16-mer peptides", "setting": "CD4+ T-cell clone 25; [1]", "value": "most efficiently"},
      {"measurement": "recognition by clone 25 of overlapping 16-mer peptides", "setting": "CD4+ T-cell clone 25; [1]", "value": "recognized"},
      {"measurement": "peptide concentration found optimal to achieve CD4+ T-cell stimulation", "setting": "CD4+ T-cell clone 25; titration experiments, clone 25", "value": 2, "unit": "µg/mL"},
      {"measurement": "presentation of peptide to clone 25 by EBV-B cell lines with different HLA class II typings", "setting": "HLA-DR11; LP2-, LB1981-, R12-, PV6-, AC 42- and 4800-EBV pulsed 1 μM 1 h, FIG. 7", "value": "only those expressing HLA-DRB1*11 (PV6-, AC 42- and 4800-EBV) were able to present the peptide to clone 25"},
      {"measurement": "recognition by clone 25 of peptide-loaded autologous EBV-B cells in presence of anti-HLA-DR antibody", "setting": "HLA-DR11; peptide 1 μM, FIG. 6", "value": "completely abolished"},
      {"measurement": "recognition by clone 25 of peptide-loaded autologous EBV-B cells in presence of antibodies against HLA-DP or HLA-DQ", "setting": "HLA-DR11; peptide 1 μM, FIG. 6", "value": "no influence"}
    ]},
    {"sequence": "YARAAARQARA [SEQ ID NO:53, TAT PDT variant peptide, reference compound]", "values": [
      {"measurement": "recognition by clone 3 of overlapping peptides of the 42-mer", "setting": "CD4+ T-cell clone 3; autologous EBV-B cells pulsed 5 μg/ml, 1 h, IFN-γ ELISA, FIG. 12", "value": "not"}
    ]},
    {"sequence": "YARAAARQARAPPADIVFSVKSPPSAGYLVMVSRGALADEPP [SEQ ID NO:54]", "values": [
      {"measurement": "number of microcultures with peptide-specific CD4+ T-cells generated", "setting": "CD4+ T-cells; DCs loaded with long TAT-MCSP-peptide at 20 μg/ml overnight, donor 11325", "value": 3},
      {"measurement": "number of peptide-specific T-cell clones generated", "setting": "CD4+ T-cells; from microculture F1, limiting dilution", "value": 3},
      {"measurement": "Interferon-γ production of clone F1/3 after stimulation with peptide-loaded autologous EBV-B-cells", "setting": "CD4+ T-cell clone 3; long TAT-MCSP-peptide 10 μM overnight, not with EBV-B-cells with or without control peptide, FIG. 11", "value": "specific Interferon-γ production"},
      {"measurement": "IFN-γ production of CD8+ T-cells from microcultures after stimulation with peptide-loaded autologous EBV-B-cells", "setting": "CD8+ T-cells", "value": "specific IFN-γ production"}
    ]}
  ]
}
